From US20240262934A1, “STARCH-INDOLE-ACID DERIVATIVE, PREPARATION METHOD THEREFOR, AND USE THEREOF” (SHANDONG SHANWEI IMMUNOTECH CO., LTD., priority 2021, published 2024) come the findings set out here.

A short description of data set [1]: Concentration of IAA/IPA in colonic contents for different modes of administration. Particulars: for concentration of IAA in feces (colonic contents, FIG. 8), improvement compared with the control group: 0.068 mmol IAANa.
Procedure: (§1) A high performance liquid chromatography-tandem mass spectrometry (HPLC-MS/MS) technique was used to detect the content of metabolites IAA/IPA in each sample separately. Determination of the content of IAA/IPA in mouse feces: methanol was added into the collected feces, then vortexing, ultrasound extraction, and centrifuging were performed, a supernatant was taken to obtain an extract, the obtained extract was treated, IAA/IPA internal standards (IAA-d5/IPA-d2) were added for calibration, then purification was performed by using a small HLB solid-phase extraction column (pretreated with 5 mL of methanol and 5 mL water, then rinsed with 5 mL of a methanol/water mixed solution and 5 mL of water, an effluent being discarded, and finally eluted with 5 mL of methanol before use), and an eluate was analyzed by HPLC-MS/MS to detect IAA/IPA. Determination of the content of IAA/IPA in the hepatic portal blood and the peripheral blood: whole blood collected was allowed to stand and centrifuged at low temperature, and a supernatant was taken to obtain serum, and then an internal standard was added into the serum, purification was performed by using a solid-phase extraction column, and metabolites IAA/IPA in an eluate were detected by HPLC-MS/MS by the same method as described above. Determination of the content of IAA/IPA in the colon tissues: methanol was added into colon tissues collected, ultrasonically disrupted and further uniformly ground, then vortexing, ultrasound extraction, and centrifuging were performed, a supernatant was taken to obtain an extract, and then an internal standard was added into serum, purification was performed by using a solid-phase extraction column, and the concentration of IAA/IPA in the extract was detected by HPLC-MS/MS by the same method as described above.
(§2) The experiments were divided into 5 groups in total: • 1. Blank control group; • 2. […] IAANa-containing water drinking group (with the IAANa concentration of 2.68 mg/mL, average daily drinking of 5 mL of water per mouse, and a total intake of 0.068 mmol IAANa); • 4. Gavage group (with the IAANa concentration of 67 mg/mL, daily gavage of 0.2 mL, and a total intake of 0.068 mmol IAANa); and • 5. Intraperitoneal injection group (with the IAANa concentration of 67 mg/mL, daily injection of 0.2 mL, and a total intake of 0.068 mmol IAANa).
Data set [2] can be described thus: Concentration of IAA in hepatic portal blood serum for different modes of administration. It counts as in vivo, mice. From the text:
Blank control group; • 2.

Data set [3] can be described thus: Concentration of IPA in feces of mice fed HAMSIPA feed. It counts as in vivo. Particulars: 15% and 1.5% in feed, one week. How it is done:
Indole acid derivatized starches with different degrees of substitution were added to a mouse feed in a ratio of 15% and 1.5%, respectively, and feces were taken to test the IPA content after mice were fed with a special feed prepared for one week.

Data set [4] relates to B cells and CD4+CXCR5+ Tfh in the spleen of MRL/lpr mice. Description: B cells, Tfh cells and BAFF in spleens of SLE mice. Particulars: 1.5% HAMSIAA-0.32, after the experiment. It counts as in vivo. As to the method: After the experiment, the expression levels of CD3^− B220^+ B cells, B220^+IgM^+ B cells, B220^+CD138^+ B cells, and B220^+IgD^+ B cells in the spleen for mice in each group in this embodiment were tested. […] Wherein,
After the experiment, the expression levels of CD4^+CXCR5^+ Tfh in the spleens for mice in each group and BAFF in mice in each group in this Example were tested.

The conditions of data set [5]: mouse, in vivo.
Procedure: as §1, §2
The subject of data set [6] is ANA, Anti-dsDNA lgG2a, and Anti-Smith immune antibodies. In words: Serum immune antibodies in SLE mice by ELISA. The data set is classed as in vivo. Particulars: MRL/lpr mice; 1.5% HAMSIAA-0.32; after one month of treatment and after the experiment. From the text:
After one month of treatment with HAMSIAA, blood serum samples from each group for mice were collected once. After the experiment, blood serum samples from each group of mice were collected again. The expression levels of ANA, Anti-dsDNA lgG2a, and Anti-Smith immune antibodies in the blood serum were detected by ELISA technique.

Data set [7] deals with cytokines IL-10, IL-6, IL-1, IL-22 in mouse colon tissue. In words: Cytokine levels in colon tissue of DSS colitis mice. The data set is classed as in vivo. Particulars: 1.5% HAMSIAA-0.32 in feed, vs model group. As to the method: After the end of the experiment, a disease active index (DAI) of mice was evaluated, mouse colons were taken to measure their lengths, and a colon status of the mice was evaluated by sectioning, and the levels of cytokines IL-10, IL-6, IL-22, etc. in colon tissues of the mice were detected.

The test system of data set [8] is TNF-α, IFN-γ, IL-4, IFN-α, IL-6 and IL-22. In words: Serum cytokine content in SLE mice. It counts as in vivo. Particulars: MRL/lpr mice; 1.5% HAMSIAA-0.32; after the experiment.
The test system of data set [9] is dextran sulfate sodium (DSS)-induced acute ulcerative colitis. In words: DSS-induced acute ulcerative colitis in mice: body weight, colon length, DAI, colon status, tissue sections. The data set is classed as in vivo. Particulars: tested as 15% HAMSIAA-0.49 in feed. As to the method: After the end of the experiment, a disease active index (DAI) of mice was evaluated, mouse colons were taken to measure their lengths, and a colon status of the mice was evaluated by sectioning, and the levels of cytokines IL-10, IL-6, IL-22, etc. in colon tissues of the mice were detected. The effect of […] on the prevention and treatment of DSS-induced acute ulcerative colitis in mice was finally evaluated by these indicators.

Data set [10] relates to Systemic lupus erythematosus model (MRL/lpr). Description: Systemic lupus erythematosus model mice: kidney pathology, skin damage, spleen and lymph nodes. The data set is classed as in vivo. Particulars: 1.5% HAMSIAA-0.32 in feed, 14 weeks. As to the method: • 1. Mouse food was prepared from the prepared […] in a certain addition ratio, and SLE model mice and control mice were purchased from Changzhou Cavens Experimental Animal Co., Ltd, aged 4-6 weeks. All mice were randomly divided into 4 groups: • Control group (MRL/MPJ); • Systemic lupus erythematosus model group (MRL/lpr); • Prednisone group (MRL/lpr+Prednisone); and • […] group ([…]). The […] group was given a special feed in which […] was added in a certain proportion for 14 weeks. Kidney tissues were collected after the end of the experiment. • 2. […] After the experiment, the spleens, cervical lymph nodes, and perirenal lymph nodes of each group for mice in this embodiment were collected.

The mark [11] stands for this setting: IAANa-containing drinking water.

Like-named read-outs stand apart in the source and are kept apart here.

`O=C([O-])Cc1c[nH]c2ccccc12.[Na+]` [IAANa]: the “concentration of IPA in the colonic contents compared with the control group” value in data set [1] (setting [11]), in data set [1] (gavage) and in [1] (intraperitoneal injection) was “not significantly changed” each time. In addition, the “concentration of IAA in feces (colonic contents, FIG. 8), improvement compared with the control group” value in data set [1] (IAANa-containing drinking water, 2.68 mg/mL) was “about 30 times”; in [1] (gavage, 67 mg/mL, 0.2 mL daily), “about 7 times”; in data set [1] (intraperitoneal injection, 67 mg/mL, 0.2 mL daily), “about 7 times”. Moreover, the “concentration of IAA in the hepatic portal blood compared with the control group” value in [2] (setting [11]), in [2] (gavage) and in data set [2] (intraperitoneal injection) was “significant increase” throughout.
Regarding “Indolepropionic Acid Derivatized High-Amylose Maize Starch [HAMSIPA]”, the “concentration of IPA in the feces compared with the HAMS group” value in data set [3] is “significantly increased”.
As for “indoleacetic acid derivatized high-amylose maize starch [HAMSIAA]”, in data set [4], the “expression level (concentration) of BAFF” value is “inhibit”; the “expression level of CD4+CXCR5+ Tfh in the spleen” value is given as “inhibit”; the “proliferation and differentiation of B cells in the spleen (CD3− B220+ B cells)” value is listed as “inhibit”; the “proportion of B220+CD138+ B cells (plasma cells) in the spleen” value is “reduce”. Also, in data set [4], the “proportion of B220+IgD+ B cells in the spleen” value is on record as “increase” and the “proportion of B220+IgM+ B cells in the spleen” value was “increase”. In data set [5], the “concentration of IPA in the colonic contents compared with the control group” value is given as “significantly increased”. In [6], the “expression level of ANA in blood serum” value is recorded as “significantly reduce”, the “expression level of Anti-Smith in blood serum” value was “significantly reduce” and the “expression level of Anti-dsDNA lgG2a in blood serum” value was “significantly reduce”. In data set [7] (FIG. 17), the “level of anti-inflammatory cytokine IL-10 in the colon tissue” value was “significantly increased”. Moreover, the “level of pro-inflammatory cytokine IL-6 in the colon tissue” value in data set [7] (FIG. 18) is “significantly reduced”. The “level of pro-inflammatory cytokine in the colon tissue” value in data set [7] (FIG. 19) is listed as “significantly reduced”. The “content of IL-22 in the colon tissue” value in data set [7] (FIG. 21) is listed as “significantly increased”. In addition, in data set [8], the “IFN-α expression level in blood serum” value was “significantly reduce”, the “IFN-γ expression level in blood serum” value is “significantly reduce”, the “IL-4 expression level in blood serum” value is on record as “significantly reduce” and the “IL-6 expression level in blood serum” value is “significantly reduce”. In [8], the “TNF-α expression level in blood serum” value is recorded as “significantly reduce” and the “expression level of the anti-inflammatory cytokine IL-22 in blood serum” value was “promotes”. In addition, the “severity of DSS-induced ulcerative colitis” value in data set [9] is “effectively alleviate”. In [10], the “HE staining of kidney tissues (glomerular volume, cellular proliferation, inflammatory cell infiltration)” value is “alleviated”; the “Renal interstitial scores (renal interstitial nephritis)” value is on record as “significantly attenuates”; the “cervical lymph node weight (lymph nodes enlargement)” value is “significantly reduce”; the “glomerular scores (glomerular injury)” value is given as “significantly attenuates”. Moreover, in [10], the “glomerulonephritis and interstitial nephritis / symptoms in SLE mice compared with the SLE mouse model group” value is on record as “effectively alleviate”; the “perirenal lymph node weight (lymph nodes enlargement)” value is “significantly reduce”; the “scores of the degree of skin damage” value is on record as “significantly reduces”.
